Measured values from publication PMC10028790 (bioRxiv, 2023).
pEC50: −log10 of the molar value. “And” between values parts separate entries of the source, which are not always exact repeats. Identical values can stand only once. “Also recorded” adds a separate entry of the source. Like-named read-outs stand apart in the source and are kept apart here.

Columns and labels:
GRABeCB2.0 [1] = molecular target: T1, GRABeCB2.0 (Homo sapiens, UniProt P21554); assay: cell-based; settings: for Effect on GRABeCB2.0 fluorescent signal: products of 2-AG hydrolysis
CB1R = settings: cited from earlier work
GRABeCB2.0 [2] = molecular target: T1, GRABeCB2.0; assay: cell-based; format: cell-based
[3] = adult mice, intraperitoneal 5 mg/kg; ref 44;45; cited from earlier work
[4] = read-out: EC50, potency at CB1R
[5] = read-out: EC50 for activation of CB1Rs
[6] = applied at a concentration that approaches the EC50
[7] = concentration-dependent responses

OCC(O)CO [glycerol]
Effect on GRABeCB2.0 fluorescent signal (GRABeCB2.0 [1]): did not influence

CCCCCCC(C)(C)c1ccc([C@@H]2C[C@H](O)CC[C@H]2CCCO)c(O)c1 [CP]
pEC50 (CB1R; [4]): […] | Antagonism response: t (decay following SR1 treatment) (GRABeCB2.0 [2]): 24.3 s | Decay of agonist response antagonized by SR1 (GRABeCB2.0 [2]): 24 s | Initial response: slope (GRABeCB2.0 [2]): 4.5 × 10^−2 DF/F0/sec | Maximal response: peak (GRABeCB2.0 [2]): 1.7 DF/F0 | Antagonism of agonist response by SR1 100 nM (GRABeCB2.0 [1]): partial antagonized | Antagonism of agonist response by SR1 300 nM (GRABeCB2.0 [1]): more than 80% | Effect of SR1 pre-treatment on agonist-stimulated GRABeCB2.0 activation (GRABeCB2.0 [1]): significantly reduced | Initial inflection time point (GRABeCB2.0 [1]): ≤ 1.33 min | Kinetics of fluorescent signal increase (GRABeCB2.0 [1]): progressive increases in fluorescent signal that did not reach peak response within 5 min | Maximal GRABeCB2.0 response as percent of the 2-AG response (GRABeCB2.0 [1]): 71%

CCCCC/C=C\C/C=C\C/C=C\C/C=C\CCCC(=O)NCCO [AEA, arachidonoyl ethanolamine]
pEC50 (CB1R; [4]): 6.56 to 7.16 | pEC50 (CB1R; [5]): 7.00 to 8.00

CCCCC/C=C\C/C=C\C/C=C\C/C=C\CCCC(=O)O [arachidonic acid]
Effect on GRABeCB2.0 fluorescent signal (GRABeCB2.0 [1]): did not influence

CCCCC/C=C\C/C=C\C/C=C\C/C=C\CCCC(=O)OC(CO)CO [2-AG, 2-arachidonoylglycerol]
pEC50 (CB1R; read-out: EC50, reported potency at CB1R): […] | pEC50 (CB1R; [5]): […] | Antagonism response: t (decay following SR1 treatment) (GRABeCB2.0 [2]): 42.7 s | Decay of agonist response antagonized by SR1 (GRABeCB2.0 [2]): 43 s | Maximal response: peak (GRABeCB2.0 [2]; 2-AG 1 μM, AEA 10 μM, CP 1 μM): 2.5 DF/F0 | Overall response (area under the curve) (GRABeCB2.0 [2]; 2-AG 1 μM, AEA 10 μM, CP 1 μM): 649 | Emax (GRABeCB2.0 [2]; HEK293, read-out: Peak response greater than the CP maximal response): 47 to 58% | Initial response: slope (GRABeCB2.0 [2]; slope of fluorescent signal increase within first 20 sec after start of agonist, 2-AG 1 μM, AEA 10 μM, CP 1 μM): 6.6 × 10^−2 DF/F0/sec | Antagonism of agonist response by SR1 100 nM (GRABeCB2.0 [1]): partial antagonized | Effect of SR1 pre-treatment on agonist-stimulated GRABeCB2.0 activation (GRABeCB2.0 [1]): significantly reduced | GRABeCB2.0 fluorescent signal at 0 sec over basal (GRABeCB2.0 [1]; 2-AG 10 nM): 0.19 ΔF/F0 | Initial inflection point (GRABeCB2.0 [1]; 2-AG 10 nM): 0.66 min | GRABeCB2.0 fluorescent signal at 0 sec over basal (GRABeCB2.0 [1]; 2-AG 100 nM): 0.96 ΔF/F0 | Initial inflection point (GRABeCB2.0 [1]; 2-AG 100 nM): 0.33 min | Inflection point (GRABeCB2.0 [1]; 2-AG 3 μM (strongest response)): ≈ 0.66 min | Kinetics of fluorescent signal increase (GRABeCB2.0 [1]; [6]): rapid increases in fluorescent signal that were followed by slow decays

C=C(C)[C@@H]1CCC(C)=C[C@H]1c1c(O)cc(CCCCC)cc1O [CBD, Cannabidiol]
Effect on basal GRABeCB2.0 fluorescent signal (GRABeCB2.0 [1]; CBD 0.1 nM to 3 μM (legend: 100 pM-10 μM)): did not affect; also recorded: does not modulate; also recorded: did not significantly modulate | Reduction of 2-AG-induced increase in GRABeCB2.0 fluorescent signal (GRABeCB2.0 [1]; at 1 μM): 26%

CCCCC/C=C\C/C=C\C/C=C\C/C=C\CCCC(=O)OCC(O)CO (stereo not drawn) [1-AG, 1-arachidonoylglycerol]
pEC50 (CB1R; read-out: EC50 at CB1R, ref 29;40;41): 5.72 to 6.00 | Antagonism of agonist response by SR1 100 nM (GRABeCB2.0 [1]): strongly antagonized | Antagonism of agonist response by SR1 300 nM (GRABeCB2.0 [1]): strongly antagonized | pEC50 (GRABeCB2.0 [1]): 5.74 | Effect of SR1 pre-treatment on agonist-stimulated GRABeCB2.0 activation (GRABeCB2.0 [1]): reduced | Initial inflection time point (GRABeCB2.0 [1]): ≤ 1 min | Kinetics of fluorescent signal increase (GRABeCB2.0 [1]): rapid increases in fluorescent signal that were followed by slow decays

CCCCC/C=C\C/C=C\CCCCCCCC(=O)OC(CO)CO [2-LG, 2-linoleoylglycerol]
pEC50 (CB1R; read-out: EC50, partial activation of CB1R, ref 11;12): 4.78 | pEC50 (CB1R; read-out: EC50 to activate CB1R, discussion, no reference given): ~4.60 | Antagonism of agonist response by SR1 100 nM (GRABeCB2.0 [1]): partial antagonized | pEC50 (GRABeCB2.0 [1]): 5.82 | Effect of SR1 pre-treatment on agonist-stimulated GRABeCB2.0 activation (GRABeCB2.0 [1]): reduced | Kinetics of fluorescent signal increase (GRABeCB2.0 [1]; [6]): rapid increases in fluorescent signal that were followed by slow decays | Initial inflection time point (GRABeCB2.0 [1]; [7]): ≤ 1 min

CCCCCc1cc(O)c2c(c1)OC(C)(C)[C@@H]1CCC(C)=C[C@@H]21 [Δ^9-THC, Δ^9-tetrahydrocannabinol]
THC in mouse brain [3]: ≈ 10 ng/ml and 31.8 nM

CCCCCCCC/C=C\CCCCCCCC(=O)OC(CO)CO [2-OG, 2-oleoylglycerol]
Antagonism of agonist response by SR1 100 nM (GRABeCB2.0 [1]): strongly antagonized | Antagonism of agonist response by SR1 300 nM (GRABeCB2.0 [1]): strongly antagonized | pEC50 (GRABeCB2.0 [1]): 6.00 | Effect of SR1 pre-treatment on agonist-stimulated GRABeCB2.0 activation (GRABeCB2.0 [1]): reduced | Kinetics of fluorescent signal increase (GRABeCB2.0 [1]; [6]): rapid increases in fluorescent signal that were followed by slow decays | Initial inflection time point (GRABeCB2.0 [1]; [7]): ≤ 1 min
